Test results reported in patent publication US20050276838A1, “Composition and method for viral inhibition” (priority 2003, published 2005).
Where two headings read alike, the source gives them in different places.

Assays:
[1] = tested on: MA-104 cells; format: cell-based, Rhesus monkey
Protocol: (§1) MA-104 cells of epithelial morphology were obtained from American Type Culture Collection and were originally derived from Rhesus monkey embryonic kidney. The cells were cultured at 37° C. in a humidified incubator and in an atmosphere of 5% CO2, in Minimal Essential Medium with Earle's balanced salt solution (2 mM glutamine, 1 mM sodium pyruvate, 0.1 mM non-essential amino acids and 1.5 g/L sodium bicarbonate) supplemented with 10% fetal bovine serum from Hyclone, Logan, Utah. The cells were passaged twice a week at a split ratio of 1:4.
(§2) MTT Viability Assays were conducted in a Promega CellTiter 96® Non-Radioactive Cell Kit (Cat # G400) obtained from Promega, Madison, Wis. and used according to manufacturer's instructions.
(§3) Test compounds were prepared by dissolving each compound at 20-μg/mL final concentration in incomplete MA-104 media (Minimal Essential Medium with Earle's balanced salt solution). The compounds were sterilized by filtration through a 0.45-micron filter. The filter-sterilized stock was stored frozen at less than −20° C.
(§4) Virus Inhibition Assay: Virus strain Wa (1:2 dilution from stock) was activated in the presence of 5 μg/mL trypsin and incubated with 1, 10 or 100 μg/mL test compound in serum-free medium at 37° C. for 30 minutes. The activated virus was then diluted 1:5 in serum-free medium containing test compound at the same concentration (to bring the trypsin concentration to 1 μg/mL), added to MA-104 cells, and serially diluted on microtiter plates (5-fold series). The diluent contained 1 μg/mL trypsin and the indicated amount of test compound. After the virus was adsorbed at 37° C. for 1 hour, the virus innoculum was removed, and the media was replaced with serum-free medium containing 1 μg/mL trypsin and the indicated amount of test compound. Cultures were incubated at 37° C. for 3 days, and then cell viability was assessed with the Promega MTT assay following manufacturer's instructions. Each plate contained a dilution series of virus not treated with test compound and each plate contained cells exposed to test compound without virus. All samples were tested in triplicate. Absorbance at 570 nm was determined on a SpectraMax microplate reader (Molecular Devices) equipped with SoftMax Pro (v 3.1.2) data analysis software. The mean absorbance of triplicate determinations, the standard deviation, and the % CV (standard deviation/mean* 100) were calculated. The Q test was used to remove outliers (Anderson, Robert L. 1987 in Practical Statistics for Analytical Chemists, page 31-33, Table 7, Appendix D). Data were fit to a 4-parameter curve using SoftMax Pro software. The curve equation is y=((A−D)/(1+(x/C)^B))[…] which defines a sigmoid shaped curve; A is the lower asymptote as X approaches zero; D is the upper plateau as X approaches infinity; B is the slope in the linear portion of the curve; and C is the ED50.
(§5) Test compound and activated Rotavirus were diluted in serum free medium and added to five wells of MA-104 cells. Another 5 wells on the same microtiter plate were exposed to test compound in serum free medium containing trypsin. After three days incubation, cell viability was assessed with the MTT metabolism assay. Data are expressed as percent of control without virus or compound added.

[2] = tested on: Human Rotavirus strain Wa; assay: Virus Inhibition Assay: MTT viability of MA-104 cells infected with Rotavirus in the presence of test compound; format: cell-based; settings: for Fate of MA-104 cells treated with virus and compound (MTT metabolism assay): in the presence of virus, Table 2; for MA-104 Cell Viability After Exposure to Test Compound with Rotavirus, (+) Virus: percent of control without virus or compound added, MTT after three days, five wells, compound concentration not given; for MA-104 Infection with Lactulose (Mean OD): MTT absorbance 570 nm, 3 days, mean ± sd, triplicate
Protocol: as §1
Human Rotavirus strain Wa was obtained from the American Type Culture Collection. A virus stock was diluted 1:5 in media, aliquoted to 0.2 mL per vial and stored at approximately −80° C. The human Rotavirus strain, Wa (TC adapted) (Catalog No. VR-2018), originally isolated from a diarrheic stool from a human patient (Wyatt et al., Science 207: 189-191, 1980; U.S. Pat. No. 4,341,870), is Serotype 1 (G1) for VP7.
as §2, §3, §4, §5

[3] = tested on: Human Rotavirus strain Wa; settings: previous results referred to in the text; cited from earlier work

## arabinogalactan
[1]
  MA-104 Cell Viability After Exposure to Test Compound without Rotavirus, (−) Virus: 102%
[2]
  Fate of MA-104 cells treated with virus and compound (MTT metabolism assay): significant cell kill due to virus infection
  MA-104 Cell Viability After Exposure to Test Compound with Rotavirus, (+) Virus: 19%

## Sialyllactose
[1]
  MA-104 Cell Viability After Exposure to Test Compound without Rotavirus, (−) Virus: 100%
[2]
  Fate of MA-104 cells treated with virus and compound (MTT metabolism assay): significant cell kill due to virus infection
  MA-104 Cell Viability After Exposure to Test Compound with Rotavirus, (+) Virus: 17%

## galactooligosaccharide
[1]
  MA-104 Cell Viability After Exposure to Test Compound without Rotavirus, (−) Virus: 116%

## OC[C@H]1O[C@@H](O[C@@H]2[C@@H](CO)O[C@](O)(CO)[C@H]2O)[C@H](O)[C@@H](O)[C@H]1O [Lactulose, 4-O-β-D-galactopyranosil-D-fructofuranose]
[1]; Rhesus monkey, 3 days
  MA-104 Cell Viability After Exposure to Test Compound without Rotavirus, (−) Virus: 134%
[1]; Rhesus monkey, 3 days, 1 μg/mL
  MA-104 cells, no virus (Mean OD): 0.372 ± 0.093
[1]; Rhesus monkey, 3 days, 10 μg/mL
  MA-104 cells, no virus (Mean OD): 0.419 ± 0.070
[1]; Rhesus monkey, 3 days, 100 μg/mL
  MA-104 cells, no virus (Mean OD): 0.612 ± 0.192
[2]; Lactulose 1 μg/mL, virus (diln)-1 10
  MA-104 Infection with Lactulose (Mean OD): 0.072 ± 0.007
[2]; Lactulose 1 μg/mL, virus (diln)-1 50
  MA-104 Infection with Lactulose (Mean OD): 0.132 ± 0.010
[2]; Lactulose 1 μg/mL, virus (diln)-1 250
  MA-104 Infection with Lactulose (Mean OD): 0.428 ± 0.092
[2]; Lactulose 1 μg/mL, virus (diln)-1 1250
  MA-104 Infection with Lactulose (Mean OD): 0.756 ± 0.036
[2]; Lactulose 1 μg/mL, virus (diln)-1 6250
  MA-104 Infection with Lactulose (Mean OD): 0.743 ± 0.064
[2]; Lactulose 1 μg/mL, virus (diln)-1 31250
  MA-104 Infection with Lactulose (Mean OD): 0.782 ± 0.049
[2]; Lactulose 1 μg/mL, virus (diln)-1 156250
  MA-104 Infection with Lactulose (Mean OD): 0.804 ± 0.031
[2]; Lactulose 10 μg/mL, virus (diln)-1 10
  MA-104 Infection with Lactulose (Mean OD): 0.087 ± 0.002
[2]; Lactulose 10 μg/mL, virus (diln)-1 50
  MA-104 Infection with Lactulose (Mean OD): 0.315 ± 0.168
[2]; Lactulose 10 μg/mL, virus (diln)-1 250
  MA-104 Infection with Lactulose (Mean OD): 0.541 ± 0.330
[2]; Lactulose 10 μg/mL, virus (diln)-1 1250
  MA-104 Infection with Lactulose (Mean OD): 0.869 ± 0.088
[2]; Lactulose 10 μg/mL, virus (diln)-1 6250
  MA-104 Infection with Lactulose (Mean OD): 0.808 ± 0.085
[2]; Lactulose 10 μg/mL, virus (diln)-1 31250
  MA-104 Infection with Lactulose (Mean OD): 0.820 ± 0.082
[2]; Lactulose 10 μg/mL, virus (diln)-1 156250
  MA-104 Infection with Lactulose (Mean OD): 0.844 ± 0.030
[2]; Lactulose 100 μg/mL, virus (diln)-1 10
  MA-104 Infection with Lactulose (Mean OD): 0.133 ± 0.045
[2]; Lactulose 100 μg/mL, virus (diln)-1 50
  MA-104 Infection with Lactulose (Mean OD): 0.849 ± 0.061
[2]; Lactulose 100 μg/mL, virus (diln)-1 250
  MA-104 Infection with Lactulose (Mean OD): 0.906 ± 0.081
[2]; Lactulose 100 μg/mL, virus (diln)-1 1250
  MA-104 Infection with Lactulose (Mean OD): 0.971 ± 0.060
[2]; Lactulose 100 μg/mL, virus (diln)-1 6250
  MA-104 Infection with Lactulose (Mean OD): 1.012 ± 0.153
[2]; Lactulose 100 μg/mL, virus (diln)-1 31250
  MA-104 Infection with Lactulose (Mean OD): 0.951 ± 0.038
[2]; Lactulose 100 μg/mL, virus (diln)-1 156250
  MA-104 Infection with Lactulose (Mean OD): 0.942 ± 0.040
[2]; MA-104 cells infected with Rotavirus, lactulose 1, 10, 100 μg/mL
  Protection of MA-104 cells from virus killing: protected MA-104 cells from virus killing in a dose dependent manner
[2]
  Fate of MA-104 cells treated with virus and compound (MTT metabolism assay): remained viable
  MA-104 Cell Viability After Exposure to Test Compound with Rotavirus, (+) Virus: 119%

## kappa-carageenen [Kappa Carageenen]
[1]
  MA-104 Cell Viability After Exposure to Test Compound without Rotavirus, (−) Virus: 112%
[2]
  Fate of MA-104 cells treated with virus and compound (MTT metabolism assay): remained viable
  MA-104 Cell Viability After Exposure to Test Compound with Rotavirus, (+) Virus: 119%
[3]
  Inhibition of Rotavirus according to previous results / previous data: inhibits Rotavirus infection
